Laboratory results from patent US8557737B2, “Methods of altering poppy characteristics” (priority 2005, dated 2013).

Columns and labels:
poppy crops [1] = assay: Example 10: field trial, triasulfuron and metsulfuron-methyl, morphine crop; format: in vivo, Papaver somniferum; conditions: COMPOUND 1 120 MG/HA + PULSE .2 % V/V at GC, RU and BE
Experimental: (§1) All trials were conducted on poppy crops. Seed was treated with Thiram (5.6 g of Thiram 800/kg seed) and Apron (4 g/kg) and sown at a rate of approximately 750 g/ha. Fertilisers were applied at sowing. Most commonly, either 50:50 lime:superphosphate/triple superphosphate at 125 kg/ha, or lime:superphosphate at 250 kg/ha, were mixed with seed and drilled at a depth of 15 mm. In the same operation, NPK (nitrogen:phosphorus:potassium), at various rates, was banded 75 mm below the seed, unless otherwise stated. All crops were subjected to herbicide sprays for weed control, fungicide sprays for disease control, insecticide sprays if appropriate and were irrigated as required.
(§2) All spray applications were made with a precision sprayer, using Silvan Lurmark flat-fan, low-drift nozzles (LD110-0015). Spray equipment was calibrated to deliver 153 L water/ha.
(§3) At harvest, a 2 m×4 m quadrat was placed in each plot (3 m×6 m, unless otherwise stated) and capsules hand-picked from this area. Capsules were broken up, seed and capsule material separated and weighed. Capsule moisture readings were taken with a moisture meter. Alkaloid yield data were calculated on Pesticide Research Manager (version 5 for Windows) using the formulae below. Briefly, capsule weight was adjusted for moisture to a dry weight, 5% of seed weight was added to this (this amount of capsule material regularly occurs in seed samples after processing) to give a capsule weight per plot. Seed weight was adjusted to 95% of crude weight. Straw weights were determined by multiplying dry capsule weight by 1.3 (estimated amount of stem material in a commercial harvest) and adjusted to 11% moisture. When Lontrel was applied to crops exact capsule and seed weight data were entered. Analyses of variance and a Multiple Range Test were performed on data using Pesticide Research Manager. Significant differences (P=0.05) between treatments are denoted by different lower case letters adjacent to treatment means in the tables of results.
[…] Treatment sprays were applied to crop at ground cover, mid run-up and bud-emergence, respectively.

poppy crops [2] = assay: Example 11: field trial, metsulfuron-methyl, Sunny and metsulfuron-methyl+Sunny at row cover, early run-up, bud-emergence/early hook, morphine crop; format: in vivo, Papaver somniferum; conditions: Trt 4: COMPOUND 1 120 MG/HA + PULSE .2% V/V at RC, ERU and BE/EH
Experimental: as §1, §2, §3
Trial to evaluate applications of metsulfuron-methyl (Compound 1), Sunny and metsulfuron-methyl+Sunny, in a morphine crop. Treatment sprays were applied to crop at row cover, early run-up and bud-emergence/early hook. Plant heights were measured at green capsule stage.

SMILES: COC(=O)c1ccccc1S(=O)(=O)NC(=O)Nc1nc(C)nc(OC)n1 [Compound 1, metsulfuron-methyl]
- CAPSULE/SEED RATIO (poppy crops [1]): 11.957 a
- CROP WEIGHT (poppy crops [1]): 1.86 a t/ha
- HEIGHT (poppy crops [1]): 84.2 b cm
- MORPHINE (poppy crops [1]): 39.63 a kg/ha
- SEED (poppy crops [1]): 105 c kg/ha
- STRAW (poppy crops [1]): 1757 a kg/ha
- STRAW MORPHINE (poppy crops [1]): 2.25 a %
- CAPSULE/SEED RATIO (poppy crops [2]): 8.488 a
- CROP WEIGHT (poppy crops [2]): 3.22 d t/ha
- LODGING (poppy crops [2]): 1.2 b %
- MORPHINE (poppy crops [2]): 60.39 a kg/ha
- SEED (poppy crops [2]): 267 c kg/ha
- STRAW (poppy crops [2]): 2955 a kg/ha
- STRAW MORPHINE (poppy crops [2]): 2.04 a %
- HEIGHT (poppy crops [2]; height at green capsule stage): 99.2 a cm
